In patent US20090069319A1, “IMIDAZOPYRIDINE ANALOGS AND THEIR USE AS AGONISTS OF THE WNT-BETA-CATENIN CELLULAR MESSAGING SYSTEM” (Wyeth, priority 2007, published 2009):

Assay: Functional Dkk1-LRP5-TCF-Luciferase Assay in U2OS Cells (table columns: A=MAX FOLD Induction/DMSO CONTROL; B=fold induction @ 2.0 uM; C=fold induction @ 20.0 uM)
Assay type: cell-based, Human
Settings: Homo sapiens, U2OS; for fold induction at 2 µM: 2.0 uM compound; for fold induction at 20 µM: 20.0 uM compound
Method: Biological Evaluation—Functional Dkk1-LRP5-TCF-Luciferase Assay in U2OS Cells
U2OS Human Bone derived cells (Osteosarcoma) are grown in McCoy's 5A Medium (Modified), with L-glutamine (GIBCO Cat No. 16600-082)+1% Pen-Strep+5% FBS) plated at 1×10^7 cells/T175 cm flask. The next day, the cells are co-transfected overnight with the following plasmids: (a) Test reporter (16×TCF-TK-FireFly-Luci), (b) Internal Control Reporter (TK-Renilla-Luci), (c) Wnt3a and (d) Dkk1. GIBCO's Lipofectamine 2000 and OptiMEM were used for the transfection. After a minimum of 4 hr of transfection at 37° C., the plasmid-transfected cells are trypsinized, counted, and suspended in freezing medium (95% FBS+5% DMSO). The reporter cells are frozen at 1×10^7/ml concentrations, aliquoted into 0.5 ml or 2.5 ml/tube and stored at −70° C.
The following day, test compounds are added under HTS setup by Plate Track into 384 well plates (white, TC treated, Falcon plate) such that the final concentration of the compounds in 20 μL/well cell will be 5 μg/ml (final concentration of DMSO=0.25% and final compound concentration=20 μM). Vials of frozen reporter cells are thawed by warming the vial in a 37° C. water bath for 60-120 seconds with some shaking until the cells formed a suspension. The thawed cells are transferred into a cold 50 ml (or larger) tube and mixed well by gentle pipetting. The appropriate amount of cold Phenol Red Free RPMI medium-1640 (GIBCO, Cat # 11835-030) with L-glutamine is added, both with ˜5% FBS (GIBCO-BRL, Cat. # 16000-044), so that 20 μl of the final cell suspension will contain ˜5,000 cells. The cell dilution is done such that the final concentration of FBS was ˜5%. Diluted cells (20 μl) are added into each well in a 384 well plate. The plate is incubated at 37° C. under 5% CO2 for ˜20 h. Bright-Glo substrate, 2.5 μl/well is added, and the Fire Fly Luciferase is measured using VLUX (60 second exposure) immediately after the substrate was added. Test compounds are dissolved in DMSO (100%) and added to specified wells. Raw luciferase signal data obtained as relative luminescence units (RLUs) for the test compounds are normalized to the signal of the mean of the sample reporter cell plate with DMSO.
Active compounds have TCF-luciferase ratios of 2.5 fold or greater over DMSO. All compounds show a signal increase of at least 10% compared to a signal with only DMSO added.
A=MAX FOLD Induction/DMSO CONTROL
B=TCF ACTIVITY/DMSO CONTROL Fold induction @ 2.0 uM C=TCF ACTIVITY/DMSO CONTROL Fold induction @ 20.0 uM

## c1ccc2cc(-c3ccnc4c3nc(-c3ccc5c(c3)OCO5)n4C3CCNCC3)ccc2c1 [2-(1,3-benzodioxol-5-yl)-7-(2-naphthyl)-3-piperidin-4-yl-3H-imidazo[4,5-b]pyridine]
  fold induction at 2 µM: 1.36

## c1ccc2cc(-c3ccnc4c3nc(-c3cccc5ccccc35)n4C3CCNCC3)ccc2c1 [2-(1-naphthyl)-7-(2-naphthyl)-3-piperidin-4-yl-3H-imidazo[4,5-b]pyridine]
  fold induction at 2 µM: 1.39

## c1ccc2cc(-c3ccnc4c3nc(C3CCCC3)n4C3CCNCC3)ccc2c1 [2-cyclopentyl-7-(2-naphthyl)-3-piperidin-4-yl-3H-imidazo[4,5-b]pyridine]
  fold induction at 2 µM: 1.46

## [O-][n+]1ccc(-c2nc3c(-c4ccc5ccccc5c4)ccnc3n2C2CCNCC2)cc1 [7-(2-naphthyl)-2-(1-oxidopyridin-4-yl)-3-piperidin-4-yl-3H-imidazo[4,5-b]pyridine]
  fold induction at 2 µM: 1.45
  fold induction at 20 µM: 0.06

## c1coc(-c2nc3c(-c4ccc5ccccc5c4)ccnc3n2C2CCNCC2)c1 [2-(2-furyl)-7-(2-naphthyl)-3-piperidin-4-yl-3H-imidazo[4,5-b]pyridine]
  fold induction at 2 µM: 1.82
  fold induction at 20 µM: 0.01

## c1cncc(-c2nc3c(-c4ccc5ccccc5c4)ccnc3n2C2CCNCC2)c1 [7-(2-naphthyl)-3-piperidin-4-yl-2-pyridin-3-yl-3H-imidazo[4,5-b]pyridine]
  fold induction at 2 µM: 1.21

## Cn1cccc1-c1nc2c(-c3ccc4ccccc4c3)ccnc2n1C1CCNCC1 [2-(1-methyl-1H-pyrrol-2-yl)-7-(2-naphthyl)-3-piperidin-4-yl-3H-imidazo[4,5-b]pyridine]
  fold induction at 2 µM: 1.52
  fold induction at 20 µM: 0.01

## Oc1ccc(-c2nc3c(-c4ccc5ccccc5c4)ccnc3n2C2CCNCC2)cc1 [4-[7-(2-naphthyl)-3-piperidin-4-yl-3H-imidazo[4,5-b]pyridin-2-yl]phenol]
  fold induction at 2 µM: 1.3

## Cc1ccc(-c2nc3c(-c4ccc5ccccc5c4)ccnc3n2C2CCNCC2)c(C)c1 [2-(2,4-dimethylphenyl)-7-(2-naphthyl)-3-piperidin-4-yl-3H-imidazo[4,5-b]pyridine]
  fold induction at 2 µM: 1.3

## Cn1cc(-c2nc3c(-c4ccc5ccccc5c4)ccnc3n2C2CCNCC2)c2ccccc21 [2-(1-methyl-1H-indol-3-yl)-7-(2-naphthyl)-3-piperidin-4-yl-3H-imidazo[4,5-b]pyridine]
  fold induction at 2 µM: 1.23

## Oc1cccc(-c2nc3c(-c4ccc5ccccc5c4)ccnc3n2C2CCNCC2)c1 [3-[7-(2-naphthyl)-3-piperidin-4-yl-3H-imidazo[4,5-b]pyridin-2-yl]phenol]
  fold induction at 2 µM: 1.58

## CCc1nc2cc(-c3ccc4ccccc4c3)cnc2n1C1CCNCC1 [2-ethyl-6-(2-naphthyl)-3-piperidin-4-yl-3H-imidazo[4,5-b]pyridine]
  fold induction at 2 µM: 1.27
  fold induction at 20 µM: 0.78

## CC(C)NC(=O)N1CCC(n2c(=O)n(C)c3c(-c4ccc5ccccc5c4)ccnc32)CC1 [N-isopropyl-4-[1-methyl-7-(2-naphthyl)-2-oxo-1,2-dihydro-3H-imidazo[4,5-b]pyridin-3-yl]piperidine-1-carboxamide]
  fold induction at 2 µM: 1.07
  fold induction at 20 µM: 0.26

## O=[N+]([O-])c1cccc(-c2nc3cc(-c4ccc5ccccc5c4)cnc3n2C2CCNCC2)c1 [6-(2-naphthyl)-2-(3-nitrophenyl)-3-piperidin-4-yl-3H-imidazo[4,5-b]pyridine]
  fold induction at 2 µM: 1.3

## CCCc1nc2cc(-c3ccc4ccccc4c3)cnc2n1C1CCNCC1 [6-(2-naphthyl)-3-piperidin-4-yl-2-propyl-3H-imidazo[4,5-b]pyridine]
  fold induction at 2 µM: 1.38
  fold induction at 20 µM: 0.01

## O=C(N1CCC(n2cnc3c(-c4ccc5ccccc5c4)ccnc32)CC1)C(F)(F)F [7-(2-naphthyl)-3-[1-(trifluoroacetyl)piperidin-4-yl]-3H-imidazo[4,5-b]pyridine]
  fold induction at 2 µM: 1.58
  fold induction at 20 µM: 0.39

## c1ccc2cc(-c3cnc4c(c3)nc(-c3cccc5cccnc35)n4C3CCNCC3)ccc2c1 [8-[6-(2-naphthyl)-3-piperidin-4-yl-3H-imidazo[4,5-b]pyridin-2-yl]quinoline]
  fold induction at 2 µM: 1.61

## COc1cccc(-c2nc3c(-c4ccc5ccccc5c4)ccnc3n2C2CCNCC2)c1 [2-(3-methoxyphenyl)-7-(2-naphthyl)-3-piperidin-4-yl-3H-imidazo[4,5-b]pyridine]
  fold induction at 2 µM: 1.25

## Cc1nc2cc(-c3ccc4ccccc4c3)cnc2n1C1CCNCC1 [2-methyl-6-(2-naphthyl)-3-piperidin-4-yl-3H-imidazo[4,5-b]pyridine]
  fold induction at 2 µM: 1.06
  fold induction at 20 µM: 1.17

## Brc1ccccc1-c1nc2c(-c3ccc4ccccc4c3)ccnc2n1C1CCNCC1 [2-(2-bromophenyl)-7-(2-naphthyl)-3-piperidin-4-yl-3H-imidazo[4,5-b]pyridine]
  fold induction at 2 µM: 1.6

## COc1ccc2[nH]cc(-c3nc4c(-c5ccc6ccccc6c5)ccnc4n3C3CCNCC3)c2c1 [2-(5-methoxy-1H-indol-3-yl)-7-(2-naphthyl)-3-piperidin-4-yl-3H-imidazo[4,5-b]pyridine]
  fold induction at 2 µM: 1.2

## O=c1[nH]cc(-c2nc3c(-c4ccc5ccccc5c4)ccnc3n2C2CCNCC2)c(=O)[nH]1 [5-[7-(2-naphthyl)-3-piperidin-4-yl-3H-imidazo[4,5-b]pyridin-2-yl]pyrimidine-2,4(1H,3H)-dione]
  fold induction at 2 µM: 1.94
  fold induction at 20 µM: 1.91

## COC(=O)N1CCC(n2cnc3c(-c4ccc5ccccc5c4)ccnc32)CC1 [methyl 4-[7-(2-naphthyl)-3H-imidazo[4,5-b]pyridin-3-yl]piperidine-1-carboxylate]
  fold induction at 2 µM: 1.08
  fold induction at 20 µM: 1.02

## Cn1c(-c2nc3cc(-c4ccc5ccccc5c4)cnc3n2C2CCNCC2)cc2ccccc21 [2-(1-methyl-1H-indol-2-yl)-6-(2-naphthyl)-3-piperidin-4-yl-3H-imidazo[4,5-b]pyridine]
  fold induction at 2 µM: 1.05

## CCn1cnc(-c2nc3c(-c4ccc5ccccc5c4)ccnc3n2C2CCNCC2)c1C [2-(1-ethyl-5-methyl-1H-imidazol-4-yl)-7-(2-naphthyl)-3-piperidin-4-yl-3H-imidazo[4,5-b]pyridine]
  fold induction at 2 µM: 1.88

## c1ccc2cc(-c3ccnc4c3nc(-c3cccc5ncccc35)n4C3CCNCC3)ccc2c1 [5-[7-(2-naphthyl)-3-piperidin-4-yl-3H-imidazo[4,5-b]pyridin-2-yl]quinoline]
  fold induction at 2 µM: 1.33

## c1ccc2cc(-c3cnc4c(c3)nc(-c3cccc5ncccc35)n4C3CCNCC3)ccc2c1 [5-[6-(2-naphthyl)-3-piperidin-4-yl-3H-imidazo[4,5-b]pyridin-2-yl]quinoline]
  fold induction at 2 µM: 1.29

## O=c1[nH]c2c(-c3ccc4ccccc4c3)ccnc2n1C1CCNCC1 [7-(2-naphthyl)-3-piperidin-4-yl-1,3-dihydro-2H-imidazo[4,5-b]pyridin-2-one]
  fold induction at 2 µM: 1.29
  fold induction at 20 µM: 0.04

## Fc1ccc(-c2nc3c(-c4ccc5ccccc5c4)ccnc3n2C2CCNCC2)c(F)c1 [2-(2,4-difluorophenyl)-7-(2-naphthyl)-3-piperidin-4-yl-3H-imidazo[4,5-b]pyridine]
  fold induction at 2 µM: 1.42

## c1ccc2cc(-c3ccnc4c3nc(-c3ncc[nH]3)n4C3CCNCC3)ccc2c1 [2-(1H-imidazol-2-yl)-7-(2-naphthyl)-3-piperidin-4-yl-3H-imidazo[4,5-b]pyridine]
  fold induction at 2 µM: 1.42

## c1ccc2cc(-c3ccnc4c3nc(-c3cc5ccccc5s3)n4C3CCNCC3)ccc2c1 [2-(1-benzothien-2-yl)-7-(2-naphthyl)-3-piperidin-4-yl-3H-imidazo[4,5-b]pyridine]
  fold induction at 2 µM: 1.02

## c1ccc2cc(-c3cnc4c(c3)nc(-c3ccncc3)n4C3CCNCC3)ccc2c1 [6-(2-naphthyl)-3-piperidin-4-yl-2-pyridin-4-yl-3H-imidazo[4,5-b]pyridine]
  fold induction at 2 µM: 1.56
  fold induction at 20 µM: 0.005

## c1ccc(-c2nc3cc(-c4ccc5ccccc5c4)cnc3n2C2CCNCC2)nc1 [6-(2-naphthyl)-3-piperidin-4-yl-2-pyridin-2-yl-3H-imidazo[4,5-b]pyridine]
  fold induction at 2 µM: 1.6
  fold induction at 20 µM: 0.005

## Cc1ccc2[nH]cc(-c3nc4c(-c5ccc6ccccc6c5)ccnc4n3C3CCNCC3)c2c1 [2-(5-methyl-1H-indol-3-yl)-7-(2-naphthyl)-3-piperidin-4-yl-3H-imidazo[4,5-b]pyridine]
  fold induction at 2 µM: 1.92
